Test results from ChEMBL document CHEMBL5726782, “N-pyrrolidinyl,N′-pyrazolyl-urea, thiourea, guanidine and cyanoguanidine compounds as TrkA kinase inhibitors” (2018).

Biological target: High affinity nerve growth factor receptor (Homo sapiens, UniProt P04629)
Assay: Kinase Binding Assay: TrkA binding activity was determined in a TrkA LanthaScreen™ Eu Kinase Binding Assay. 5 nM His-tagged recombinant human TrkA (6HIS tagged cytoplasmic domain from Invitrogen, Catalog No. PV3144) was incubated with 4 nM Alexa-Fluor® Tracer 236 (Invitrogen Cat. No. PV5592), 2 nM biotinylated anti-His (Invitrogen Cat. No. PV6090), and 2 nM europium-labeled Streptavidin (Invitrogen Cat. No. PV5899), in buffer (25 mM MOPS, pH 7.5, 5 mM MgCl2, 0.005% Triton X-100). Three fold serial dilutions of compounds of the invention in DMSO were added to a final percentage of 2% DMSO. After 60-minute incubation at 22° C., the reaction was measured using the EnVision mutlimode plate reader (PerkinElmer) via TR-FRET dual wavelength detection at […]. The percent of control was calculated using a ratiometric emission factor.

High affinity nerve growth factor receptor, sequence (P04629 whole entry, the tested form may be a part): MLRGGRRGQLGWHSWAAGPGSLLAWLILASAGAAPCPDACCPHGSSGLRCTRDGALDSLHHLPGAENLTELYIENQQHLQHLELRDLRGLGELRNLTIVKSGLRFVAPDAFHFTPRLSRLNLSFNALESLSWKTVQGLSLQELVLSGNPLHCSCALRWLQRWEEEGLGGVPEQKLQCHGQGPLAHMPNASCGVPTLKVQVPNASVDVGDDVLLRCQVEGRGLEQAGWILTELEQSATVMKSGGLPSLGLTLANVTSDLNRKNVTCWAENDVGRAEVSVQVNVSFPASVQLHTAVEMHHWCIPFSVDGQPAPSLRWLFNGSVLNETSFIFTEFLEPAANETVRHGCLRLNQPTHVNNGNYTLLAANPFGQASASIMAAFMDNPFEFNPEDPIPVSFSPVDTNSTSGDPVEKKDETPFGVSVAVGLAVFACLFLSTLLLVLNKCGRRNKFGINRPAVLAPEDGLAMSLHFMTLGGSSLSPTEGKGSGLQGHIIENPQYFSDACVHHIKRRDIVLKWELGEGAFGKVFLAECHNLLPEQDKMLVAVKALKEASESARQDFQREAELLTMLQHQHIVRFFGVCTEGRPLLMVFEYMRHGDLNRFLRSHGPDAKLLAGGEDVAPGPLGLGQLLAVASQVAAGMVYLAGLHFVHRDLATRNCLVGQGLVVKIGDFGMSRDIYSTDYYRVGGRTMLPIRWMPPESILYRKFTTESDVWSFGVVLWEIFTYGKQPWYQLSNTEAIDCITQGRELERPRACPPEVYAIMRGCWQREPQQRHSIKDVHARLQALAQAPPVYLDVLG

IC50: < 100 nM
SMILES: COCCN1C[C@@H](NC(=O)Nc2c(C)c(-c3cncc(OC)c3)nn2-c2ccccc2)[C@H](c2ccc(F)c(F)c2)C1
